Columns and labels:
Format in all cases: biochemical
Aurora A = target: T1, Aurora A (Homo sapiens, UniProt O14965); assay: Aurora A counter screen; conditions: read-out: AUR-A (IC50)
T1 sequence (O14965 1-403): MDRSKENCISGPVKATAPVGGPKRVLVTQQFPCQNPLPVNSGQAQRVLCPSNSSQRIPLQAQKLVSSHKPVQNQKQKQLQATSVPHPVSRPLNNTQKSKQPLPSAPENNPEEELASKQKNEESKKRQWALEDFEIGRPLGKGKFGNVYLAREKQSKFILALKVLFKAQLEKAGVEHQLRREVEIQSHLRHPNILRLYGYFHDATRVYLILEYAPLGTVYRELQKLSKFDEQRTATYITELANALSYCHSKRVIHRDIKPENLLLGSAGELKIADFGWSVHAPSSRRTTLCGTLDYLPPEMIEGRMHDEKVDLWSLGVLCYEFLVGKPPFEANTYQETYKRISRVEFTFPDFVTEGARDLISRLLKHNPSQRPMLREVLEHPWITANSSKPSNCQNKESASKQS
Experimental: (§1) To identify small molecule NUAK inhibitors, a biochemical NUAK2 enzymatic assay was outsourced to Eurofins. This assay was done radiometrically using full-length, recombinant enzyme. NUAK2 (h) was incubated with 8 mM MOPS pH 7.0, 0.2 mM EDTA, 300 μM […], 10 mM magnesium acetate and […] (specific activity and concentration as required). The reaction was initiated by the addition of the Mg/ATP mix. After incubation for 40 minutes at room temperature, the reaction was stopped by the addition of phosphoric acid to a concentration of 0.5%. 10 μL of the reaction was then spotted onto a P30 filter mat and washed four times for 4 minutes in 0.425% phosphoric acid and once in methanol prior to drying and scintillation counting. Compounds were routinely counter screened against Aurora A and NUAK1. The results are shown in Table 1 where IC50s are reported the following ranges: A: 0.1-10 nM; B: 11-100 nM; C: 101-1000 nM; D: >1000 nM for the compounds of Formula I)

NUAK1 = target: T2, NUAK1 (Homo sapiens, UniProt O60285); assay: NUAK1 counter screen
T2 sequence (O60285 1-661): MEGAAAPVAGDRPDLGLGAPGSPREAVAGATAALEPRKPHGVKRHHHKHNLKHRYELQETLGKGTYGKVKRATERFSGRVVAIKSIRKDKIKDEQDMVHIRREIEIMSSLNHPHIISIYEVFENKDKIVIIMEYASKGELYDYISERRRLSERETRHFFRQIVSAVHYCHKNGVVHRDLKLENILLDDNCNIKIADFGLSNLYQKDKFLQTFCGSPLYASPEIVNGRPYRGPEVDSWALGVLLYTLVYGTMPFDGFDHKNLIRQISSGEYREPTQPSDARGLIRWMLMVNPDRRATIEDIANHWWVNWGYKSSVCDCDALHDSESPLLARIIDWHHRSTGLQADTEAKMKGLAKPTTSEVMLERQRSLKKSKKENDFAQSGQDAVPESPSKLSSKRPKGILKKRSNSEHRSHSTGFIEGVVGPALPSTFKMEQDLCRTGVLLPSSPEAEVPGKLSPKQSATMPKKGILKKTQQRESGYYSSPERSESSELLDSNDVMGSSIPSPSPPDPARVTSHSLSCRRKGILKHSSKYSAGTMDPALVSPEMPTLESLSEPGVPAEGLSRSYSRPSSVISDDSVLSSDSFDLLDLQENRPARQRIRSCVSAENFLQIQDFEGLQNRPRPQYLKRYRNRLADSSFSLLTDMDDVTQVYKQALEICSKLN
Experimental: as §1

NUAK2 (h) = target: T3, NUAK2 (h) (Homo sapiens, UniProt Q9H093); assay: NUAK2 enzymatic assay (radiometric, Eurofins); conditions: for IC50: radiometric, full-length recombinant enzyme
T3 construct: This assay was done radiometrically using full-length, recombinant enzyme; purchased Eurofins
T3 sequence (Q9H093 1-628): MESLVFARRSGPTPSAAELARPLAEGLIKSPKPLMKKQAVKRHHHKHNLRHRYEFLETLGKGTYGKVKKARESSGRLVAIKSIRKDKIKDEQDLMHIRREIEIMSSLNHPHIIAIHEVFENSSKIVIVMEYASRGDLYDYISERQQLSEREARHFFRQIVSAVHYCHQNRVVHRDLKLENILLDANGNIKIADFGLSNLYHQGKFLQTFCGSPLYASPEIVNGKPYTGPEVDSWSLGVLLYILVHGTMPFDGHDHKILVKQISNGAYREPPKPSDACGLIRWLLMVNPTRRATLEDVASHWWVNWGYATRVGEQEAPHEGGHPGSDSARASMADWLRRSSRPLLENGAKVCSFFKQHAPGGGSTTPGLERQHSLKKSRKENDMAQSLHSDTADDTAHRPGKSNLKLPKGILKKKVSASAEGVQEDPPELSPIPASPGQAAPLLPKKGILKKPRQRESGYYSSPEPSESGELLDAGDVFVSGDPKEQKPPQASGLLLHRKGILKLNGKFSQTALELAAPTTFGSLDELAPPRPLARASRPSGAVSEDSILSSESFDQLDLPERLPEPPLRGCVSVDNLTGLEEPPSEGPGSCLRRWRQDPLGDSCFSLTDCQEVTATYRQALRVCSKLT
Experimental: as §1

Row | SMILES | IC50 (Aurora A) | IC50 (NUAK1) | IC50 (NUAK2 (h)) | AUR-A (IC50, nM)/NUAK2 (IC50, nM) (NUAK2 (h); NUAK2 selectivity over Aurora-A, ratio of IC50s)
1 | C[C@H]1CN(C2CCN(c3ccc(Nc4ncc(C(F)(F)F)c(Nc5ccsc5C(N)=O)n4)c(OC(F)F)c3)CC2)CCN1C [Compound I-68, (S)-3-((2-((2-(difluoromethoxy)-4-(4-(3,4-dimethylpiperazin-1-yl)piperidin-1-yl)phenyl)amino)-5-(trifluoromethyl)pyrimidin-4-yl)amino)thiophene-2-carboxamide] | 0.101 to 1 µM | 0.011 to 0.1 µM | 0.011 to 0.1 µM | 
2 | Cc1cnc(Nc2ccc(N3CCN(C(C)C)CC3)cc2OC(F)F)nc1Nc1ccsc1C(N)=O [Compound I-17, 3-((2-((2-(difluoromethoxy)-4-(4-isopropylpiperazin-1-yl)phenyl)amino)-5-methylpyrimidin-4-yl)amino)thiophene-2-carboxamide] | 0.101 to 1 µM | 0.011 to 0.1 µM | 0.011 to 0.1 µM | 
3 | CN1CCN(c2ccc(Nc3ncc(Cl)c(N[C@@H]4CCC[C@@H]4C(N)=O)n3)c(OC(F)F)c2)CC1 [Compound I-86, (1S,2R)-2-((5-chloro-2-((2-(difluoromethoxy)-4-(4-methylpiperazin-1-yl)phenyl)amino)pyrimidin-4-yl)amino)cyclopentane-1-carboxamide] | > 1 µM | 0.011 to 0.1 µM | 0.011 to 0.1 µM | 
4 | COc1cc(N2CCN(C)CC2)ccc1Nc1ncc(Cl)c(Nc2ccsc2C(N)=O)n1 [Compound C-1, reference compound] | 0.011 to 0.1 µM | 0.0001 to 0.01 µM | 0.0001 to 0.01 µM | 6
5 | CC(C)(C)N1CCN(c2ccc(Nc3ncc(Cl)c(Nc4ccsc4C(N)=O)n3)c(OC(F)F)c2)CC1 [Compound I-20, 3-((2-((4-(4-(tert-butyl)piperazin-1-yl)-2-(difluoromethoxy)phenyl)amino)-5-chloropyrimidin-4-yl)amino)thiophene-2-carboxamide] | 0.101 to 1 µM | 0.0001 to 0.01 µM | 0.0001 to 0.01 µM | 
6 | NC(=O)c1ccsc1Nc1nc(Nc2ccc(N3CCNCC3)cc2OC(F)F)ncc1Cl [Compound I-2, 2-((5-chloro-2-((2-(difluoromethoxy)-4-(piperazin-1-yl)phenyl)amino)pyrimidin-4-yl)amino)thiophene-3-carboxamide] | > 1 µM | 0.011 to 0.1 µM | 0.011 to 0.1 µM | 
7 | NC(=O)c1sccc1Nc1nc(Nc2ccc(N3CCC(N4CCOCC4)CC3)cc2OC(F)F)ncc1Cl [Compound I-43, 3-((5-chloro-2-((2-(difluoromethoxy)-4-(4-morpholinopiperidin-1-yl)phenyl)amino)pyrimidin-4-yl)amino)thiophene-2-carboxamide] | 0.101 to 1 µM | 0.011 to 0.1 µM | 0.0001 to 0.01 µM | 
8 | NC(=O)c1sccc1Nc1nc(Nc2ccc(N3CCCC3)cc2OC(F)F)ncc1Cl [Compound I-28, 3-((5-chloro-2-((2-(difluoromethoxy)-4-(pyrrolidin-1-yl)phenyl)amino)pyrimidin-4-yl)amino)thiophene-2-carboxamide] | 0.101 to 1 µM | 0.011 to 0.1 µM | 0.101 to 1 µM | 

The next lines start with the values.

Row | IC50 (Aurora A) | IC50 (NUAK1) | IC50 (NUAK2 (h)) | AUR-A (IC50, nM)/NUAK2 (IC50, nM) (NUAK2 (h); NUAK2 selectivity over Aurora-A, ratio of IC50s) | SMILES
9 | 0.011 to 0.1 µM | 0.0001 to 0.01 µM | 0.0001 to 0.01 µM |  | NC(=O)c1sccc1Nc1nc(Nc2ccc(N3CCC(N4CCCC4)CC3)cc2OC(F)F)ncc1Cl [Compound I-48, 3-((5-chloro-2-((2-(difluoromethoxy)-4-(4-(pyrrolidin-1-yl)piperidin-1-yl)phenyl)amino)pyrimidin-4-yl)amino)thiophene-2-carboxamide]
10 | 0.101 to 1 µM | 0.011 to 0.1 µM | 0.011 to 0.1 µM |  | CC(C)N1C[C@@H]2C[C@H]1CN2c1ccc(Nc2ncc(Cl)c(Nc3ccsc3C(N)=O)n2)c(OC(F)F)c1 (stereo in doubt) [Compound I-35, 3-((5-chloro-2-((2-(difluoromethoxy)-4-((1S,4S)-5-isopropyl-2,5-diazabicyclo[2.2.1]heptan-2-yl)phenyl)amino)pyrimidin-4-yl)amino)thiophene-2-carboxamide]
11 | 0.101 to 1 µM | 0.011 to 0.1 µM | 0.011 to 0.1 µM |  | C[C@H]1CN(c2ccc(Nc3ncc(Cl)c(Nc4sccc4C(N)=O)n3)c(OC(F)F)c2)CCN1C [Compound I-23, (S)-2-((5-chloro-2-((2-(difluoromethoxy)-4-(3,4-dimethylpiperazin-1-yl)phenyl)amino)pyrimidin-4-yl)amino)thiophene-3-carboxamide]
12 | 0.101 to 1 µM | 0.011 to 0.1 µM | 0.011 to 0.1 µM |  | CN1CCN(c2cc(OC(F)F)c(Nc3ncc(Cl)c(Nc4ccsc4C(N)=O)n3)cc2F)CC1 [Compound I-6, 3-((5-chloro-2-((2-(difluoromethoxy)-5-fluoro-4-(4-methylpiperazin-1-yl)phenyl)amino)pyrimidin-4-yl)amino)thiophene-2-carboxamide]
13 | 0.101 to 1 µM | 0.0001 to 0.01 µM | 0.0001 to 0.01 µM |  | NC(=O)c1sccc1Nc1nc(Nc2ccc(N3CCC(N4CCCCC4)CC3)cc2OC(F)F)ncc1Cl [Compound I-58, 3-((2-((4-([1,4′-bipiperidin]-1′-yl)-2-(difluoromethoxy)phenyl)amino)-5-chloropyrimidin-4-yl)amino)thiophene-2-carboxamide]
14 | > 1 µM | 0.101 to 1 µM | 0.011 to 0.1 µM |  | CN1CCN(c2ccc(Nc3ncc(Cl)c(N[C@@H]4CCC[C@@H]4C(N)=O)n3)c(C(F)(F)F)c2)CC1 [Compound I-84, (1S,2R)-2-((5-chloro-2-((4-(4-methylpiperazin-1-yl)-2-(trifluoromethyl)phenyl)amino)pyrimidin-4-yl)amino)cyclopentane-1-carboxamide]
15 | 0.011 to 0.1 µM | 0.011 to 0.1 µM | 0.011 to 0.1 µM |  | COCCN1CCN(c2ccc(Nc3ncc(Cl)c(Nc4ccsc4C(N)=O)n3)c(OC(F)F)c2)CC1 [Compound I-50, 3-((5-chloro-2-((2-(difluoromethoxy)-4-(4-(2-methoxyethyl)piperazin-1-yl)phenyl)amino)pyrimidin-4-yl)amino)thiophene-2-carboxamide]
16 | 0.101 to 1 µM | 0.0001 to 0.01 µM | 0.011 to 0.1 µM |  | CN(C)[C@H]1CCN(c2ccc(Nc3ncc(Cl)c(Nc4ccsc4C(N)=O)n3)c(OC(F)F)c2)C1 [Compound I-56, (S)-3-((5-chloro-2-((2-(difluoromethoxy)-4-(3-(dimethylamino)pyrrolidin-1-yl)phenyl)amino)pyrimidin-4-yl)amino)thiophene-2-carboxamide]
17 | 0.101 to 1 µM | 0.011 to 0.1 µM | 0.0001 to 0.01 µM |  | C[C@@H]1CN(c2ccc(Nc3ncc(Cl)c(Nc4sccc4C(N)=O)n3)c(OC(F)F)c2)C[C@H](C)N1C [Compound I-11, 2-((5-chloro-2-((2-(difluoromethoxy)-4-((3R,5S)-3,4,5-trimethylpiperazin-1-yl)phenyl)amino)pyrimidin-4-yl)amino)thiophene-3-carboxamide]

Reference: patent US20240025887A1, “THIENYL AND CYCLOALKYL AMINOPYRIMIDINE COMPOUNDS AS INHIBITORS OF NUAK KINASES, COMPOSITIONS AND USES THEREOF” (Ontario Institute for Cancer Research (OICR), priority 2021, published 2024)
